Values after ≈ are worked out from the molar mass of the structure shown. “Also recorded” adds a separate entry of the source. Where two headings read alike, the source gives them in different places.
How the values were obtained:
[1] = tested on: T. cruzi Tulahuen CL2 strain (nifurtimox-sensitive); test: Antitrypanosomal activity, T. cruzi on MRC-5 cells, β-galactosidase readout; assay type: cell-based, Trypanosoma cruzi; conditions: for IC50: Trypanosoma cruzi, TULAHUEN
Method: To determine in vitro anti-trypanosomal activity, 4×10^3 MRC-5 cells and 4×10^4 parasites were added to each well of test plate with compound. […] The color reaction was read at 540 nm and absorbance values were expressed as a percentage of the blank controls.

[2] = tested on: P. falciparum GHA-strain (chloroquine-suceptible); test: Antiplasmodial activity, Malstat method; assay type: cell-based, Plasmodium falciparum; conditions: for IC50: Plasmodium falciparum, read-out: P. falciparum IC50
[3] = tested on: Leishmania infantum amastigotes (MHOM/ET 67); test: Antileishmanial activity, amastigotes in primary peritoneal mouse macrophages; assay type: cell-based; conditions: for IC50: Leishmania infantum, Macrophage, 120 h, read-out: L. infantum IC50
Method: Leishmania infantum amastigotes (MHOM/ET 67) were collected from an infected donor hamster and used to infect primary peritoneal mouse macrophages. To determine in vitro antileishmanial activity, 3×10^4 macrophages were seeded in each well of a 96-well plate. After 48 h outgrowth, 5×10^4 amastigotes/well were added and incubated for 2 h at 37 °C. […] Parasite burdens were determined microscopically after Giemsa staining and expressed as a percentage of the blank controls without compound.

[4] = Cytotoxicity assay, resazurin; assay type: cell-based; conditions: human
Method: Cell viability was determined after addition of resazurin.

[5] = tested on: Mycobacterium tuberculosis; conditions: cited from earlier work
Escherichia coli = tested on: Escherichia coli; parameters: method as in PMID 17442577; conditions: previous studies; cited from earlier work
Staphyllococcus aureus = tested on: Staphyllococcus aureus; parameters: method as in PMID 17442577; conditions: previous studies; cited from earlier work
[6] = intracellular amastigotes, TDR hit criterion <0.5 μg/mL
[7] = GHA-strain, 72 h, TDR hit criterion <0.2 μg/mL
[8] = MRC-5 SV2 cells (human fetal lung fibroblasts)
[9] = MRC5, 168 h, read-out: T. cruzi IC50

SMILES | IC50 [3, 6] [µg/mL] | IC50 [2, 7] [µg/mL] | IC50 at 72 h [4, 8] [µg/mL] | IC50 [1, 9] [µg/mL] | also measured
O=C(Cn1ccnc1[N+](=O)[O-])NCc1ccccc1 [Benznidazole, reference compound] | – | – | – | – | IC50 ([1]; MRC5, as printed in running text and table footnote, read-out: T. cruzi IC50): 0.25 µg/mL (≈ 0.961 µM)
CCN(CC)CCCC(C)Nc1ccnc2cc(Cl)ccc12 (centres unmarked) [Chloroquine, reference compound] | – | – | – | – | IC50 ([2]; 72 h): 0.04 µg/mL
CO/N=c1\[n-]cnc2c1n(C/C=C(\C)CCC=C(C)C)c[n+]2C [Compound 1a] | 7.5 (≈ 23.8 µM) | 0.46 | 0.86 (≈ 2.73 µM) | < 0.079 | –
CO/N=c1\[n-]cnc2c1[n+](C/C=C(\C)CC/C=C(\C)CCC=C(C)C)cn2C [Compound 1b] | 0.77 (≈ 2.01 µM) | 0.63 | 0.35 (≈ 0.913 µM) | < 0.096 | –
CC(C)=CCC/C(C)=C\CC/C(C)=C/C[n+]1cn(C)c2nc[n-]/c(=N\OCc3ccccc3)c21 [Compound 1c] | 0.99 (≈ 2.15 µM) | 0.74 | 0.31 (≈ 0.674 µM) | < 0.11 | –
CO/N=c1\[n-]cnc2c1[n+](C/C=C(\C)CC/C=C(\C)CC/C=C(\C)CCC=C(C)C)cn2C [Compound 1d] | 0.093 (≈ 0.206 µM) | 0.1 | 2 (≈ 4.43 µM) | 0.11 (≈ 0.244 µM) | hit for leishmaniasis according to TDR ([3]; criterion IC50 <0.5 μg/mL and SI >20): meets the definition of a hit; also recorded: identified as hits; antimalaria hit according to TDR ([2]; criterion IC50 <0.2 μg/mL with SI >20): met this requirement; antibacterial activity against M. tuberculosis, in words ([5]; previously shown): inhibition of Mycobacterium tuberculosis; IC50 ([1]; MRC5, read-out: T. cruzi IC50): < 1 µg/mL
CC(C)=CCC/C(C)=C/CC/C(C)=C/CC/C(C)=C/C[n+]1cn(C)c2nc[n-]/c(=N\OCc3ccccc3)c21 [Compound 1e] | 5.4 (≈ 10.2 µM) | 4.2 | 3.2 (≈ 6.06 µM) | 1.4 (≈ 2.65 µM) | –
CC(C)=CCC/C(C)=C/CC/C(C)=C/CC/C(C)=C/C[n+]1cn(C)c2nc[n-]/c(=N\OC(C)(C)C)c21 [Compound 1f] | 0.27 (≈ 0.547 µM) | 0.26 | 0.26 (≈ 0.527 µM) | < 0.12 | activity against L. infantum, in words [3]: potent inhibitors
CO/N=c1\[n-]cnc2c1[n+](C/C=C(\C)CC/C=C(\C)CC/C=C(\C)CCC=C(C)C)cn2CCC#N [Compound 1g] | 12 (≈ 24.5 µM) | 5.3 | 0.49 (≈ 0.999 µM) | 0.81 (≈ 1.65 µM) | –
CC(C)=CCC/C(C)=C/CC/C(C)=C/CC/C(C)=C/C[n+]1cn(CCC#N)c2nc[n-]/c(=N\OCc3ccccc3)c21 [Compound 1h] | 18 (≈ 31.8 µM) | 10 | 3.5 (≈ 6.18 µM) | 3 (≈ 5.29 µM) | –
CO/N=c1\[n-]cnc2c1[n+](C/C=C(\C)CC/C=C(\C)CC/C=C(\C)CCC=C(C)C)cn2C(c1ccccc1)c1ccccc1 [Compound 1i] | 1.2 (≈ 1.99 µM) | 3.5 | 0.92 (≈ 1.52 µM) | 1.3 (≈ 2.15 µM) | –
CO/N=c1\[n-]cnc2c1[n+](C/C=C(\C)CCCC(C)CCCC(C)CCCC(C)C)cn2C (centres unmarked) [Compound 1j] | 0.23 (≈ 0.503 µM) | 0.3 | 0.21 (≈ 0.459 µM) | < 0.11 | activity against L. infantum, in words [3]: potent inhibitors
CC1=C(CC/C(C)=C/CC/C(C)=C/C[n+]2cn(C)c3nc[n-]/c(=N\OCc4ccccc4)c32)C(C)(C)CCC1 [Compound 1l] | 12 (≈ 22.7 µM) | 1.3 | 0.53 (≈ 1 µM) | 0.14 (≈ 0.265 µM) | –
CC1=C(CC/C(C)=C/CC/C(C)=C/C[n+]2cn(C)c3nc[n-]/c(=N\OC(C)(C)C)c32)C(C)(C)CCC1 [Compound 1m] | 0.99 (≈ 2.01 µM) | 0.69 | 0.48 (≈ 0.972 µM) | < 0.12 | –
C=C1CC[C@H]2C(C)(C)CCC[C@]2(C)[C@H]1CC/C(C)=C/Cn1c[n+](C)c2nc[n-]/c(=N\OC)c21 [Compound 1n] | 0.63 (≈ 1.39 µM) | 0.29 | 4.5 (≈ 9.96 µM) | 0.49 (≈ 1.08 µM) | –
C=C1CC[C@H]2C(C)(C)CCC[C@]2(C)[C@H]1CC/C(C)=C/Cn1c[n+](C)c2nc[n-]/c(=N\OC(C)(C)C)c21 [Compound 1o] | 4 (≈ 8.1 µM) | 0.94 | 0.45 (≈ 0.911 µM) | < 0.12 | –
CC(C)=CCC/C(C)=C\CC/C(C)=C/C[n+]1cn(C)c2ncnc(N)c21 [Compound 2a] | > 26 | 2.9 | > 26 | 0.43 | antibacterial activity against E. coli, in words (Escherichia coli): virtually inactive; antibacterial activity against M. tuberculosis, in words ([5]; previous studies): virtually inactive; hit for Chagas disease according to TDR [1]: classified as hits; also recorded: identified as hits; antibacterial activity against S. aureus, in words (Staphyllococcus aureus): virtually inactive
C/C(=C\C[n+]1cn(C)c2ncnc(N)c21)CCCC(C)CCCC(C)CCCC(C)C (centres unmarked) [Compound 2b] | – | – | – | < 0.12 | IC50 [3]: 2.9 µg/mL; IC50 ([2]; 72 h): 0.96 µg/mL; IC50 at 72 h ([4]; read-out: MRC-5 IC50): 0.75 µg/mL
C=C1CC[C@@H]2C(C)(C)CCC[C@@]2(C)[C@@H]1CC/C(C)=C/Cn1c[n+](C)c2ncnc(N)c21 [Compound 2c, agelasine D] | 1.5 | 0.29 | – | 4.5 | IC50 ([2]; same value as 0.29 μg/mL, in μM): 0.63 µM; IC50 at 72 h ([4]; read-out: MRC-5 IC50): 6.7 µg/mL
CC(C)=CCC/C(C)=C/CC/C(C)=C/CC/C(C)=C/Cn1cnc2c(N)ncnc21 [Compound 3f, 9-Geranylgeranyladenine] | > 29 | > 29 | 2.7 (≈ 6.62 µM) | 0.77 (≈ 1.89 µM) | IC50 ([1]; MRC5, read-out: T. cruzi IC50): < 1 µg/mL
CC(C)=CCC/C(C)=C/CC/C(C)=C/CC/C(C)=C/Cn1cnc2ncnc(N)c21 [Compound 4a] | > 26 | 9.4 | 2.6 (≈ 6.38 µM) | 2.3 (≈ 5.64 µM) | –
CONc1ncnc2ncn(C/C=C(\C)CC/C=C(\C)CC/C=C(\C)CCC=C(C)C)c12 [Compound 4b] | > 28 | > 28 | 2.1 (≈ 4.8 µM) | 0.28 (≈ 0.64 µM) | –
CC(C)=CCC/C(C)=C/CC/C(C)=C/CC/C(C)=C/Cn1cnc2ncnc(NOCc3ccccc3)c21 [Compound 4c] | > 33 | 25 | 1.5 (≈ 2.92 µM) | 1.5 (≈ 2.92 µM) | –
CC(C)=CCC/C(C)=C/CC/C(C)=C/CC/C(C)=C/Cn1c[n+](C)c2ccccc21 [Compound 6] | 2.5 | 1 | 2 | < 0.12 | –
CC(C)=CCC/C(C)=C/CC/C(C)=C/CC/C(C)=C/C[n+]1cnc2c(ncn2C)c1N [Compound 7] | > 32 | 10 | 16 | 11 | –
CC(C)=CCC/C(C)=C/CC/C(C)=C/CC/C(C)=C/Cn1cnc2c1c(=N)ncn2C [Compound 8] | 13 (≈ 30.8 µM) | 3.37 | 2.3 (≈ 5.45 µM) | 0.19 (≈ 0.451 µM) | –
CC1=C(CC/C(C)=C/CC/C(C)=C/Cn2cnc3c2C(=N)N(C)CN3C)C(C)(C)CCC1 [Compound 9] | > 28 | > 28 | > 28 | 3.2 (≈ 7.31 µM) | IC50 ([1]; MRC5, read-out: T. cruzi IC50): < 1 µg/mL
CCCCCCCCCCCCCCCCOP(=O)([O-])OCC[N+](C)(C)C [Miltefosine, reference compound] | 0.24 (≈ 0.589 µM) | – | – | – | –

Reference: article PMC6253839, “Screening of Agelasine D and Analogs for Inhibitory Activity against Pathogenic Protozoa; Identification of Hits for Visceral Leishmaniasis and Chagas Disease” (Molecules, 2009)
